Melting point data for 63 molecules are collected here from a melting point compilation (Tetko et al.; mined from patent text by program, amines drawn as free bases though some values may be those of a salt).

By melting point is commonly meant the temperature, or range, at which the solid turns liquid. `CCCCOc1cc(OCCCc2cn(-c3ccc(C(F)(F)F)cn3)nc2OCC)ccc1CCC(=O)O` displayed a melting point of 123 to 124 °C.
Take `Cc1cc(O)nc(SCC(N)=O)n1`: the melting point was in the range of 238 to 240 °C.
As for `NC1N=C(c2ccccc2)c2ccccc2N(CC(F)(F)F)C1=O` (stereo not drawn), the melting point lay in the range of 141 to 143 °C.
The value for `CN1CC[C@@]2(c3cccc(O)c3)C[C@@H](N=[N+]=[N-])CC[C@H]2C1` (racemic) was 139 to 140 °C.
With `COc1c(-c2cc3c(s2)CC(O)C3)ccc2c(=O)c(C(=O)O)cn(C3CC3)c12` (stereo not drawn), the melting point fell in the range of 254 to 255 °C.
The result for `CCOC(=O)Nc1cc(C(C)C(O)(Cn2cncn2)c2ccc(F)cc2F)ccn1` (stereo not drawn) reads 177 to 179 °C.
As to `CCCCn1cc(C(=O)C(=O)O)c2cc(-c3cccc(OC)c3)ccc21`, the melting point lay in the range of 108 to 109 °C.
For the molecule `O=C(NN=Cc1ccc2ccccc2n1)c1cccc([N+](=O)[O-])c1`, the melting point lay in the range of 217 to 218 °C.
For `COC(=O)c1cc(NC(=O)COc2ccccc2)c2cc(Cc3ccc(F)cc3)cnc2c1O`, the melting point lay within 172 to 173 °C.
The value for `CCNC(=O)Nc1cnc2ccc(Cl)nc2n1` was 240 °C.
The molecule `O=C(CCCCCCS(=O)(=O)c1ccccc1)c1ncco1` registered a melting point of 55 to 56 °C.
`O=c1nc(-c2cccc(OCc3ccccc3)n2)sc2ccccc12` returned a melting point of 241 °C.
Turning to `O=C(C[C@H](NC(=O)C(F)(F)F)C(=O)O)c1ccc2oc3ccccc3c2c1`, the melting point is 140 to 144 °C.
The value for `O=C1c2ccccc2C(=O)N1c1cc(C(Cl)(Cl)Cl)ccn1` was 143 °C; that for `Brc1cccc(C=C2c3ccccc3CCc3ccccc32)c1` was 105 °C; that for `CCCC(=O)Nc1cc2c(s1)CCN(C(C(=O)C1CC1)c1ccccc1F)C2` (stereo not drawn) was 154 to 157 °C.
Take `CC(=O)N(C(=O)N(C)C)c1snc(C(C)C)c1C#N`: the melting point was in the range of 128 to 130 °C.
`Cc1cc(-n2ccnc2)c2cccc(OCc3c(Cl)ccc(S(=O)(=O)N4CCC[C@H]4C(=O)NCC4CC4)c3Cl)c2n1` displayed a melting point of 100 °C.
`COc1c(C(=O)NC2CN3CCC2CC3)cc(Cl)c2c1CCN2` (stereo not drawn) displayed a melting point of 107 to 109 °C.
The value for `Cc1cc2c(cc1C)SC(CCCBr)C(=O)N2` (stereo not drawn) was 151 to 153 °C; that for `CC(C)C[C@H](NC(=O)[C@H](Cc1c[nH]c2ccccc12)NC(=O)OC(C)(C)C)C(=O)O` was 109 to 111 °C; that for `CN(C)C(=O)ON=C1n2ccnc2SC1(C)C` was 99 to 102 °C.
For `CCCCC(CBr)CCCc1ccccc1` (stereo not drawn), the melting point lay within 31 to 33 °C.
`O=S1(=O)c2cccc3cccc(c23)N1CCCN1CCN(c2ccc(Cl)cc2)CC1`: the melting point worked out at 120 °C.
`CC(C)(C)OC(=O)N[C@@H](Cc1ccc(-c2ccccc2)cc1)C(=O)NCCC#N` had a melting point of 163 to 164 °C.
The value for `NC(=O)CCC(=O)Nc1c(C(=O)c2ccccc2)[nH]c2cc(Cl)ccc12` was 258 to 263 °C; that for `CS(=O)(=O)c1ccc(-c2cc(CO[N+](=O)[O-])nn2CC2CCCCC2)cc1` was 98 to 99 °C.
As for `CCN1C=C(C(=O)O)C(=O)CC1c1ccc(OC)cc1` (stereo not drawn), the melting point was 173 to 174 °C.
`CC(C)(ON1C(C)(C)CC(OC(=O)CCCCCCCCC(=O)OC2CC(C)(C)N(OC(C)(C)c3ccccc3)C(C)(C)C2)CC1(C)C)c1ccccc1` registered a melting point of 94 to 96 °C.
`CCc1cc(Nc2ccc(N)cc2)n2nccc2n1` yielded a melting point of 153 to 154 °C.
The value for `O=c1ccccn1[C@@H]1c2ccccc2OCC[C@H]1O` (relative stereo) was 232 to 234 °C; that for `CC(C)(C)c1cc(C=O)c(O)c(C(F)(F)F)c1` was 56 to 57.5 °C.
The molecule `CC(=O)ON(C)C(=O)C(C)Nc1c([N+](=O)[O-])cc(C)cc1[N+](=O)[O-]` (stereo not drawn) yielded a melting point of 137 to 138 °C.
In the case of `CNC(=O)OCc1c(COC(=O)NC)c2n(c1C)-c1ccccc1C2`, the melting point was in the range of 86 to 88 °C.
`CN1CCCC1=NC(=S)Nc1ccccc1` had a melting point of 142 to 144 °C.
Consider `Cc1nn2c(c1Cl)N=NC2CCNC(=O)c1ccccc1C(=O)O` (stereo not drawn), for which the melting point fell in the range of 162 to 166 °C.
As to `CC(C)(C)OC(=O)Nc1cccc(C(=O)OCc2ccccc2)c1`, the melting point is 151 to 153 °C.
For `C=CS(=O)CCNC(=O)NC(=O)CCCl` (stereo not drawn), the melting point is 113 to 135 °C.
The molecule `COC(=O)CCC(CSc1ccc2ccccc2c1)C(=O)O` (stereo not drawn) returned a melting point of 70 to 71 °C.
The result for `CCCCN1CCN(NC(=O)c2cc(Cl)c(N)cc2OC)CC1` reads 174 °C; that for `CS(=O)(=O)c1ccc(-c2[nH]nc(OC3CCCC3=O)c2-c2ccc(F)cc2)cc1` (stereo not drawn), 96 to 99 °C.
In turn, `C=CCN1C2CCC1C1CCC2N1C(c1ccc(C(=O)N2CCCC2)cc1)c1cccc(OC)c1` (stereo not drawn) yielded a melting point of 46 to 48 °C.
`CCOC(=O)c1coc(-c2ccc(Cn3cnc4ccccc43)cc2)n1` yielded a melting point of 150 to 152 °C.
Molecule `N#CC1=Cc2ccccc2OC1` showed a melting point of 44 to 45 °C.
Molecule `COc1cc(N2CCC(Br)C2=O)ccc1Cl` (stereo not drawn) returned a melting point of 113 to 115 °C.
With `Nn1c(C(F)(F)F)cc(=O)n(-c2c(F)cc(Cl)c3c2ONC3c2ccccc2)c1=O` (stereo not drawn), the melting point was 171 to 173 °C.
`CCOC(=O)Cc1ccc(-c2nc(COc3ccc(COc4nn(-c5ccccc5)cc4/C=C/c4csc(COC(=O)c5ccccc5)n4)cc3OC)c(C)o2)cc1` gave a melting point of 116 to 117 °C.
The value for `CC(=O)NC(=O)NCC1CC2c3cccc4[nH]c(Br)c(c34)CC2N(C)C1` (stereo not drawn) was 210 to 212 °C; that for `NC(N)=Nc1nc(-c2cccc(CCl)n2)cs1` was 260 to 261 °C.
For `CCOC(=O)c1ncc2c(c1COC)c1c(OCc3ccccc3)cccc1n2S(=O)(=O)c1ccc(C)cc1`, the melting point fell in the range of 149 to 150 °C.
Take `COCC1CN(c2ccc(C3CCC(O)CC3)cn2)C(=O)O1` (racemic): the melting point is 142 to 143 °C.
The result for `COc1ccc2c(n1)NC(C)(C)C(=O)N2` reads 194 to 195 °C.
The result for `Cc1ncnc(C)c1C(=O)O` reads 203 to 204 °C; that for `COc1cccc(-c2ccc(C(=O)NCCOc3ccc(CC(Oc4ccc(C(C)C)cc4)C(=O)O)cc3)cc2)c1` (stereo not drawn), 138 to 139 °C; that for `Cc1cccc(-c2n[nH]cc2-c2ccc(F)c(-c3c[nH]cn3)c2)n1`, 229 to 233 °C.
The value for `O=C(NC[C@H]1CN(c2ccc(C3C=CS(=O)(=O)CC3)cc2)C(=O)O1)C(F)F` (stereo partly drawn) was 135 to 136 °C; that for `COC(=O)c1cccc(-c2ccccc2[N+](=O)[O-])c1` was 88 to 90 °C; that for `COc1cc(NC(=O)Nc2ccccc2)c(O)c(OC)c1OC` was 123 to 125 °C.
The molecule `O=C(O)Cc1cccc(Oc2ccc(Cl)cc2)c1[N+](=O)[O-]` yielded a melting point of 167 to 170 °C.
The molecule `CCOC(=O)c1ccc(N)cc1C(=O)OCC` gave a melting point of 95.6 °C.
`COC(=O)C(Cl)Cc1cc(F)c(-n2c(=O)cc(C(F)(F)F)n(C)c2=O)cc1[N+](=O)[O-]` (stereo not drawn) displayed a melting point of 60 to 65 °C.
The value for `CCOC(=O)CC(O)c1ccc2c(c1)CC(CNS(=O)(=O)c1ccc(Cl)cc1)C2` (stereo not drawn) was 108 to 111 °C; that for `COCCCNS(=O)(=O)Cc1cccc(Nc2cc(-c3ccccc3OC)ncn2)c1` was 149 to 151 °C.
